Measurements as given in patent US20080249080A1, “Benzodiazepine Derivatives and Uses Thereof on Medical Field” (priority 2005, published 2008).

How the values were obtained:
[1] = system: RET/E768D, RET/L790F, RET/Y791F, RET/A883F and RET/S891A mutants; details: cited from earlier work
[2] = system: RET/V804L and RET/V804M mutants; details: cited from earlier work
[3] = system: RET/C634R and RET/M918T mutants; details: cited from earlier work
[4] = system: K562 cell line; test: DNA fragmentation, K562 leukemic cell line; type: cell-based, human; details: 10 μM, 24 and 48 hours, FIGS. 18, 20, 21
Description: (§1) Subsequently, the same cell lines, except OVCAR3, were tested with fourteen new synthetic compounds at 10 μM concentration for 24 and 48 hours: eleven induced the expected cellular death.

[5] = system: ARO anaplastic thyroid carcinoma cell line; test: DNA fragmentation, ARO; type: cell-based, human; details: 10 μM, 24 and 48 hours
Description: (§2) The authors also have tested compounds according to the invention, in particular RS-678 and RS-779 compounds, also on OVCAR3 ovary carcinoma cell lines, ARO anaplastic thyroid and NPA papillary thyroid human carcinoma cell lines.
as §1

[6] = system: NPA papillary thyroid carcinoma cell line; test: DNA fragmentation, NPA; type: cell-based, human; details: 10 μM, 24 and 48 hours
Description: as §2, §1

[7] = system: K562 cell line; test: DNA fragmentation, K562 leukemic cell line; type: cell-based, human; details: 5, 10, 15 μM, 8, 16 and 24 hours, FIG. 1 A, B
[8] = system: mixed lymphocytic cultures from marrow or peripheral blood of patients suffering from chronic myelogenous leukemia; test: DNA fragmentation, mixed lymphocytic cultures of CML patients; type: cell-based, human; details: samples from patients (some Glivec resistant); 10 μM; 24, 48 and 72 hours; FIGS. 12-14
[9] = system: NPA cell line; test: Percentage of apoptosis, NPA; type: cell-based, human; details: after 24 hours
[10] = system: ARO cell line; test: Percentage of dead cells, ARO; type: cell-based, human; details: after 24 hours
[11] = system: K562 cell line; test: Percentage of apoptosis, K562; type: cell-based, human; details: after 24 hours
[12] = system: tested cell lines (K562, ARO, NPA); test: Relative cellular death in the tested cell lines; type: cell-based, human
Description: as §1

[13] = system: HL-60 and Jurkat cells; details: laboratory experiments; cited from earlier work

Compound	DNA fragmentation [4]	DNA fragmentation [5]	DNA fragmentation [6]	other results
Cc1ccc(-c2nn(C(C)(C)C)c3ncnc(N)c23)cc1 [PP1]	–	–	–	inhibition of in vivo self-phosphorylation [1]: inhibited effectively; sensitivity to the action of inhibitors [2]: less sensitive; block of the transforming activity [3]: able to block
COC(=O)CC1c2cccn2N(C)c2ccccc2N1C(=O)c1ccccc1 (stereo not drawn) [RS-337, methyl 10,11-dihydro-5-methyl-10-benzoyl-5H-pyrrolo[1,2-b][1,2,5]-benzotriazepine-11-acetate]	DNA fragmentation	DNA fragmentation	DNA fragmentation	–
COC(=O)CC1c2cccn2N(C)c2ccccc2N1C(=O)c1ccc(OC)cc1 (stereo not drawn) [RS-421, methyl 10,11-dihydro-5-methyl-10-(4-metoxybenzoyl)-5H-pyrrolo[1,2-b][1,2,5]-benzotriazepine-11-acetate]	DNA fragmentation	DNA fragmentation	DNA fragmentation	–
O=C(O)C1Nc2ccccc2S(=O)(=O)n2cccc21 (stereo not drawn) [RS-735, 10,11-dihydropyrrolo[1,2-b][1,2,5]benzothiadiazepine-11-carboxylic 5,5-dioxide acid]	not present	not present	not present	apoptosis / DNA fragmentation [7]: not able to produce the DNA fragmentation
O=S1(=O)c2ccccc2NC(CO)c2cccn21 (stereo not drawn) [RS-750, 10,11-dihydropyrrolo [1,2-b][1,2,5]benzothiadiazepine-11-methanol 5,5-dioxide]	not present	not present	not present	–
CCOC(=O)CC1Nc2ccccc2S(=O)(=O)n2cccc21 (stereo not drawn) [RS-752, ethyl 10,11-dihydropyrrolo[1,2-b][1,2,5]benzothiadiazepine-11-acetate 5,5-dioxide]	DNA fragmentation	DNA fragmentation	DNA fragmentation	DNA fragmentation [8]: DNA fragmentation
O=C(O)CC1Nc2ccccc2S(=O)(=O)n2cccc21 (stereo not drawn) [RS-761, 10,11-dihydropyrrolo[1,2-b][1,2,5]benzothiadiazepine-11-acetic 5,5-dioxide acid]	not present	not present	not present	–
O=C(OC(c1ccc(Cl)cc1)C1Nc2ccccc2S(=O)(=O)n2cccc21)c1ccccc1 (stereo not drawn) [RS-786, 11-(4-Chlorophenybenzoyloxymethylene)10,11-dihydro pyrrolo[1,2-b][1,2,5]benzothiadiazepine 5,5-dioxide]	not present	not present	not present	–
CCOC(=O)C1c2cccn2S(=O)(=O)c2ccccc2N1C(=O)c1ccccc1 (stereo not drawn) [RS-2629, ethyl 10,11-dihydro-10-(benzoyl)pyrrolo[1,2-b][1,2,5]benzo-thiadiazepine-11-carboxylate 5,5-dioxide]	DNA fragmentation	DNA fragmentation	DNA fragmentation	percentage of apoptosis [9]: 80%; percentage of dead cells [10]: approximately 60%; percentage of apoptosis [11]: 85%; cellular death relative to other compounds [12]: greater cellular death
CCOC(=O)C1c2cccn2S(=O)(=O)c2ccccc2N1C(=O)c1ccc(Cl)cc1 (stereo not drawn) [RS-2630, ethyl 10,11-dihydro-10-(4-chlorobenzoyl)pyrrolo[1,2-b][1,2,5]benzothiadiazepine-11-carboxylate 5,5-dioxide]	DNA fragmentation	DNA fragmentation	DNA fragmentation	percentage of apoptosis [9]: 80%; percentage of dead cells [10]: approximately 60%; percentage of apoptosis [11]: 85%; cellular death relative to other compounds [12]: greater cellular death
CCOC(=O)C1c2cccn2S(=O)(=O)c2ccccc2N1C(=O)c1cccc2ccccc12 (stereo not drawn) [RS-2631, ethyl 10,11-dihydro-10-(1-naphtoyl)pyrrolo[1,2-b][1,2,5]benzo-thiadiazepine-11-carboxylate 5,5-dioxide]	DNA fragmentation	DNA fragmentation	DNA fragmentation	–
CCOC(=O)C1c2cccn2S(=O)(=O)c2ccccc2N1C(=O)c1ccc(F)cc1 (stereo not drawn) [RS-2632, ethyl 10,11-dihydro-10-(4-fluorobenzoyl)pyrrolo[1,2-b][1,2,5]benzothiadiazepine-11-carboxylate 5,5-dioxide]	DNA fragmentation	DNA fragmentation	DNA fragmentation	–
CCOC(=O)CC1c2cccn2S(=O)(=O)c2ccccc2N1C(=O)c1ccccc1 (stereo not drawn) [RS-2645, ethyl 10,11-dihydro-10-(benzoyl)pyrrolo[1,2-b][1,2,5]benzo-thiadiazepine-11-acetate 5,5-dioxide]	DNA fragmentation	DNA fragmentation	DNA fragmentation	cellular death relative to other compounds [12]: greater cellular death
CCOC(=O)CC1c2cccn2S(=O)(=O)c2ccccc2N1C(=O)c1ccc(F)cc1 (stereo not drawn) [RS-2652, ethyl 10,11-dihydro-10-(4-fluorobenzoyl)pyrrolo[1,2-b][1,2,5]benzothiadiazepine-11-acetate 5,5-dioxide]	DNA fragmentation	DNA fragmentation	DNA fragmentation	–
CCOC(=O)CC1c2cccn2S(=O)(=O)c2ccccc2N1C(=O)c1ccc(Cl)cc1 (stereo not drawn) [RS-2660, ethyl 10,11-dihydro-10-(4-chlorobenzoyl)pyrrolo[1,2-b][1,2,5]benzothiadiazepine-11-acetate 5,5-dioxide]	DNA fragmentation	DNA fragmentation	DNA fragmentation	–
CCOC(=O)CC1c2cccn2S(=O)(=O)c2ccccc2N1C(=O)c1cccc2ccccc12 (stereo not drawn) [RS-2661, ethyl 10,11-dihydro-10-(1-naphtoyl)pyrrolo[1,2-b][1,2,5]benzothiadiazepine-11-acetate 5,5-dioxide]	DNA fragmentation	DNA fragmentation	DNA fragmentation	–
CC[C@@]1(O)C(=O)OCc2c1cc1n(c2=O)Cc2cc3ccccc3nc2-1 [camptothecin]	–	–	–	induction of apoptosis [13]: able to induce apoptosis
COc1cccc2c1C(=O)c1c(O)c3c(c(O)c1C2=O)C[C@@](O)(C(C)=O)C[C@@H]3O[C@H]1C[C@H](N)[C@H](O)[C@H](C)O1 [daunoribucin]	–	–	–	induction of apoptosis [13]: able to induce apoptosis
COc1cccc2c1C(=O)c1c(O)c3c(c(O)c1C2=O)C[C@@](O)(C(=O)CO)C[C@@H]3O[C@H]1C[C@H](N)[C@H](O)[C@H](C)O1 [doxorubicin]	–	–	–	induction of apoptosis [13]: able to induce apoptosis
COc1cc([C@@H]2c3cc4c(cc3[C@@H](O[C@@H]3O[C@@H]5CO[C@@H](C)O[C@H]5[C@H](O)[C@H]3O)[C@H]3COC(=O)[C@H]23)OCO4)cc(OC)c1O [etoposide]	–	–	–	induction of apoptosis [13]: able to induce apoptosis
